Patent publication US7858630B2, “D3 and 5-HT2A receptor modulators” (Hoffmann-La Roche Inc., priority 2008, dated 2010)
pKi: −log10 of the molar value.

Assays:
[1] = biological target: T1, human dopamine D3 receptor (Homo sapiens, UniProt P35462); test: Radioligand binding ([3H]-spiperone) to membranes of HEK-293 EBNA cells expressing human D3 receptor; details: human D3, 0.5 nM [3H]-spiperone, HEK-293 EBNA membranes, 1 h at RT
T1 construct: expressed in transfected cells; host or cells: HEK-293 EBNA cells, transient transfection; membrane preparation
Procedure, shortened: (§1)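 Membranes from HEK-293 EBNA cells transiently transfected with the receptor were incubated 1 h at RT with ten test concentrations (10 μM–0.1 nM) and ~0.7 nM [3H]-spiperone (D2), 0.5 nM [3H]-spiperone (D3) or 1.1 nM [3H]-ketanserin (5-HT2A). Nonspecific binding was set with 10 μM spiperone, bound radioactivity was read by filtration and scintillation, and Ki was taken from IC50 via Cheng-Prusoff.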

[2] = biological target: T2, human serotonin 5-HT2A receptor (Homo sapiens, UniProt P28223); test: Radioligand binding ([3H]-ketanserin) to membranes of HEK-293 EBNA cells expressing human 5-HT2A receptor; details: 1.1 nM [3H]-ketanserin, HEK-293 EBNA membranes, 1 h at RT
T2 construct: expressed in transfected cells; host or cells: HEK-293 EBNA cells, transient transfection; membrane preparation
Procedure, shortened: as §1

[3] = biological target: T3, human dopamine D2 receptor (Homo sapiens, UniProt P14416); test: Radioligand binding ([3H]-spiperone) to membranes of HEK-293 EBNA cells expressing human D2 receptor; details: human D2, 0.7 nM [3H]-spiperone, HEK-293 EBNA membranes, 1 h at RT
T3 construct: expressed in transfected cells; host or cells: HEK-293 EBNA cells, transient transfection; membrane preparation
Procedure, shortened: as §1

T3 sequence (P14416 whole entry): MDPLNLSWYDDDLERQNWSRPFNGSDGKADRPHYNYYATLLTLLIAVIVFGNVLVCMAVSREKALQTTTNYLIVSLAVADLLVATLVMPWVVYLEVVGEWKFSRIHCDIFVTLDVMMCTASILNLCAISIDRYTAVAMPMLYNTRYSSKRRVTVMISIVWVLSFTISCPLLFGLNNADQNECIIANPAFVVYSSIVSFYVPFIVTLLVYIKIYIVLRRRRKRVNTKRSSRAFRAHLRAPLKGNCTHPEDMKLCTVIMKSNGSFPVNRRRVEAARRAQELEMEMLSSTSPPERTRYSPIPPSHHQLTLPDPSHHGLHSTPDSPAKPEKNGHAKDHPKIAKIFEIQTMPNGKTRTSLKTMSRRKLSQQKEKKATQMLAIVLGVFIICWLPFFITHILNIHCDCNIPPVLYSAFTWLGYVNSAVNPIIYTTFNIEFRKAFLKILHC
T2 sequence (P28223 whole entry): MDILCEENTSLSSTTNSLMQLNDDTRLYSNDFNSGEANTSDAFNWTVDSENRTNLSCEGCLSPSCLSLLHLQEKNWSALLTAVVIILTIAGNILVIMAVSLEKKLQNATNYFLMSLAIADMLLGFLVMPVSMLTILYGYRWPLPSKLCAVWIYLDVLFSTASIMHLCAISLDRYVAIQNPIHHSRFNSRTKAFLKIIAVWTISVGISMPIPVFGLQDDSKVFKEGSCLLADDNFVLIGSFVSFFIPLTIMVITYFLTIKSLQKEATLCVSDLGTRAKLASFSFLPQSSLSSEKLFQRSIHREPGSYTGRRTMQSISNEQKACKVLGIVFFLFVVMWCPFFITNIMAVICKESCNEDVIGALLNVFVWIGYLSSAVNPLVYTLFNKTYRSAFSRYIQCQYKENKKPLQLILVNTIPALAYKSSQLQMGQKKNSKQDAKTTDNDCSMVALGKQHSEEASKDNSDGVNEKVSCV
T1 sequence (P35462 whole entry): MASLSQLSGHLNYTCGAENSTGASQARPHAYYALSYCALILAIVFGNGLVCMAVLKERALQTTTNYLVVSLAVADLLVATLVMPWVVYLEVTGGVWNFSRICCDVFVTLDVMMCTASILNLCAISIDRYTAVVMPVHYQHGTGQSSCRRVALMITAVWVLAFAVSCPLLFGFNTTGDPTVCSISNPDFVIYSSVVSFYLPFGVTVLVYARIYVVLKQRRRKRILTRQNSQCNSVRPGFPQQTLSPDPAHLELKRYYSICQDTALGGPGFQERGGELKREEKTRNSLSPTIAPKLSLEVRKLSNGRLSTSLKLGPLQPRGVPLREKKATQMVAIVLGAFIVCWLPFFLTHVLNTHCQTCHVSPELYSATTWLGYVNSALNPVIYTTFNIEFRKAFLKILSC

pKi [1] | pKi [2] | pKi [3] | SMILES
8.18 | 7.98 | 4.94 | CC(C)OC1CCC(CC(=O)N[C@H]2CC[C@H](CCN3CCN(c4noc5ccc(F)cc45)CC3)CC2)CC1 (mixture of isomers) [Example 10, N-trans-(4-{2-[4-(5-Fluoro-benzo[d]isoxazol-3-yl)-piperazin-1-yl]-ethyl}-cyclohexyl)-2-(4-isopropoxy-cyclohexyl)-acetamide]
7.70 | 7.05 | 5.84 | COCCC(=O)N[C@H]1CC[C@H](CCN2CCN(c3noc4cc(Cl)c(F)cc34)CC2)CC1 [Example 71, N-trans-(4-{2-[4-(6-Chloro-5-fluoro-benzo[d]isoxazol-3-yl)-piperazin-1-yl]-ethyl}-cyclohexyl)-3-methoxy-propionamide]
7.50 | 8.00 | 5.81 | CCOCC(=O)N[C@H]1CC[C@H](CCN2CCN(c3noc4cc(F)c(C)cc34)CC2)CC1 [Example 110, 2-Ethoxy-N-trans-(4-{2-[4-(6-fluoro-5-methyl-benzo[d]isoxazol-3-yl)-piperazin-1-yl]-ethyl}-cyclohexyl)-acetamide]
8.00 | 8.07 | 6.09 | O=C(CC1(O)CCOCC1)N[C@H]1CC[C@H](CCN2CCN(c3noc4cc(F)c(F)cc34)CC2)CC1 [Example 61, N-trans-(4-{2-[4-(5,6-Difluoro-benzo[d]isoxazol-3-yl)-piperazin-1-yl]-ethyl}-cyclohexyl)-2-(4-hydroxy-tetrahydro-pyran-4-yl)-acetamide]
7.61 | 7.44 | 4.95 | O=C(CC1CCOCC1)N[C@H]1CC[C@H](CCN2CCN(c3noc4cc(Cl)c(F)cc34)CC2)CC1 [Example 72, N-trans-(4-{2-[4-(6-Chloro-5-fluoro-benzo[d]isoxazol-3-yl)-piperazin-1-yl]-ethyl}-cyclohexyl)-2-(tetrahydro-pyran-4-yl)-acetamide]
8.29 | 8.02 | 6.60 | CCC(=O)N[C@H]1CC[C@H](CCN2CCN(c3noc4cc(F)c(Cl)cc34)CC2)CC1 [Example 86, N-trans-(4-{2-[4-(5-Chloro-6-fluoro-benzo[d]isoxazol-3-yl)-piperazin-1-yl]-ethyl}-cyclohexyl)-propionamide]
7.60 | 7.85 | < 4.98 | Cc1cc2c(N3CCN(CC[C@H]4CC[C@H](NC(=O)CC5COCCO5)CC4)CC3)noc2cc1F (stereo partly drawn) [Example 113, 2-[1,4]Dioxan-2-yl-N-trans-(4-{2-[4-(6-fluoro-5-methyl-benzo[d]isoxazol-3-yl)-piperazin-1-yl]-ethyl}-cyclohexyl)-acetamide]
8.30 | 8.40 | 6.77 | Cc1ccc2c(N3CCN(CC[C@H]4CC[C@H](NC(=O)CS(C)(=O)=O)CC4)CC3)noc2c1 [Example 105, 2-Methanesulfonyl-N-trans-(4-{2-[4-(6-methyl-benzo[d]isoxazol-3-yl)-piperazin-1-yl]-ethyl}-cyclohexyl)-acetamide]
8.06 | 8.07 | 6.31 | COCCC(=O)N[C@H]1CC[C@H](CCN2CCN(c3noc4cc(Cl)ccc34)CC2)CC1 [Example 29, N-trans-(4-{2-[4-(6-Chloro-benzo[d]isoxazol-3-yl)-piperazin-1-yl]-ethyl}-cyclohexyl)-3-methoxy-propionamide]
8.13 | 8.28 | 6.65 | COCCC(=O)N[C@H]1CC[C@H](CCN2CCN(c3noc4cc(C)ccc34)CC2)CC1 [Example 98, 3-Methoxy-N-trans-(4-{2-[4-(6-methyl-benzo[d]isoxazol-3-yl)-piperazin-1-yl]-ethyl}-cyclohexyl)-propionamide]
7.88 | 8.20 | 6.06 | O=C(CC1OCCCO1)N[C@H]1CC[C@H](CCN2CCN(c3noc4cc(F)c(F)cc34)CC2)CC1 [Example 69, N-trans-(4-{2-[4-(5,6-Difluoro-benzo[d]isoxazol-3-yl)-piperazin-1-yl]-ethyl}-cyclohexyl)-2-[1,3]dioxan-2-yl-acetamide]
7.63 | 8.32 | 5.94 | O=C(C[C@@H]1CCCCO1)N[C@H]1CC[C@H](CCN2CCN(c3noc4cc(Cl)ccc34)CC2)CC1 [Example 50, N-trans-(4-{2-[4-(6-Chloro-benzo[d]isoxazol-3-yl)-piperazin-1-yl]-ethyl}-cyclohexyl)-2-(S)-tetrahydro-pyran-2-yl-acetamide]
8.19 | 8.53 | 4.93 | COC[C@H]1C[C@H](CC(=O)N[C@H]2CC[C@H](CCN3CCN(c4noc5cc(F)c(Cl)cc45)CC3)CC2)C1 [Example 80, N-trans-(4-{2-[4-(5-Chloro-6-fluoro-benzo[d]isoxazol-3-yl)-piperazin-1-yl]-ethyl}-cyclohexyl)-2-trans-(3-methoxymethyl-cyclobutyl)-acetamide]
7.28 | 8.00 | 5.64 | COC(C)C(=O)N[C@H]1CC[C@H](CCN2CCN(c3noc4cc(F)c(C)cc34)CC2)CC1 (stereo partly drawn) [Example 119, N-trans-(4-{2-[4-(6-Fluoro-5-methyl-benzo[d]isoxazol-3-yl)-piperazin-1-yl]-ethyl}-cyclohexyl)-2-methoxy-propionamide]
7.87 | 8.00 | 6.45 | COC1(CC(=O)N[C@H]2CC[C@H](CCN3CCN(c4noc5cc(F)c(F)cc45)CC3)CC2)CCOCC1 [Example 62, N-trans-(4-{2-[4-(5,6-Difluoro-benzo[d]isoxazol-3-yl)-piperazin-1-yl]-ethyl}-cyclohexyl)-2-(4-methoxy-tetrahydro-pyran-4-yl)-acetamide]
7.83 | 8.14 | 6.46 | COC(C)CC(=O)N[C@H]1CC[C@H](CCN2CCN(c3noc4cc(Cl)ccc34)CC2)CC1 (stereo partly drawn) [Example 37, N-trans-(4-{2-[4-(6-Chloro-benzo[d]isoxazol-3-yl)-piperazin-1-yl]-ethyl}-cyclohexyl)-3-methoxy-butyramide]
8.23 | 7.92 | 6.42 | CC(=O)N[C@H]1CC[C@H](CCN2CCN(c3noc4cc(F)c(F)cc34)CC2)CC1 [Example 56, N-trans-(4-{2-[4-(5,6-Difluoro-benzo[d]isoxazol-3-yl)-piperazin-1-yl]-ethyl}-cyclohexyl)-acetamide]
7.69 | 8.07 | 5.99 | O=C(C[C@H]1CCCCO1)N[C@H]1CC[C@H](CCN2CCN(c3noc4cc(Cl)ccc34)CC2)CC1 [Example 49, N-trans-(4-{2-[4-(6-Chloro-benzo[d]isoxazol-3-yl)-piperazin-1-yl]-ethyl}-cyclohexyl)-2-(R)-tetrahydro-pyran-2-yl-acetamide]
8.10 | 7.72 | 6.53 | COCCC(=O)N[C@H]1CC[C@H](CCN2CCN(c3noc4cc(F)c(C)cc34)CC2)CC1 [Example 108, N-trans-(4-{2-[4-(6-Fluoro-5-methyl-benzo[d]isoxazol-3-yl)-piperazin-1-yl]-ethyl}-cyclohexyl)-3-methoxy-propionamide]
8.24 | 8.54 | 4.95 | CS(=O)(=O)CC(=O)N[C@H]1CC[C@H](CCN2CCN(c3noc4cc(F)c(Cl)cc34)CC2)CC1 [Example 89, N-trans-(4-{2-[4-(5-Chloro-6-fluoro-benzo[d]isoxazol-3-yl)-piperazin-1-yl]-ethyl}-cyclohexyl)-2-methanesulfonyl-acetamide]
8.26 | 7.71 | 6.41 | O=C(C[C@H]1C[C@H](CO)C1)N[C@H]1CC[C@H](CCN2CCN(c3noc4ccc(F)cc34)CC2)CC1 [Example 20, N-trans-(4-{2-[4-(5-Fluoro-benzo[d]isoxazol-3-yl)-piperazin-1-yl]-ethyl}-cyclohexyl)-2-trans-(3-hydroxymethyl-cyclobutyl)-acetamide]
8.04 | 7.50 | 5.62 | CC(=O)N[C@H]1CC[C@H](CCN2CCN(c3noc4cc(F)c(C)cc34)CC2)CC1 [Example 106, N-trans-(4-{2-[4-(6-Fluoro-5-methyl-benzo[d]isoxazol-3-yl)-piperazin-1-yl]-ethyl}-cyclohexyl)-acetamide]
7.66 | 7.68 | 5.97 | Cc1cc2c(N3CCN(CC[C@H]4CC[C@H](NC(=O)CC5CCCO5)CC4)CC3)noc2cc1F (stereo partly drawn) [Example 118, N-trans-(4-{2-[4-(6-Fluoro-5-methyl-benzo[d]isoxazol-3-yl)-piperazin-1-yl]-ethyl}-cyclohexyl)-2-(tetrahydro-furan-2-yl)-acetamide]
8.00 | 8.42 | 6.15 | COC[C@H]1C[C@H](CC(=O)N[C@H]2CC[C@H](CCN3CCN(c4noc5cc(Cl)ccc45)CC3)CC2)C1 [Example 48, N-trans-(4-{2-[4-(6-Chloro-benzo[d]isoxazol-3-yl)-piperazin-1-yl]-ethyl}-cyclohexyl)-2-trans-(3-methoxymethyl-cyclobutyl)-acetamide]
8.12 | 8.36 | 6.09 | CO[C@@H]1CC[C@@H](CC(=O)N[C@H]2CC[C@H](CCN3CCN(c4noc5cc(F)c(F)cc45)CC3)CC2)C1 (relative stereo) [Example 65, N-trans-(4-{2-[4-(5,6-Difluoro-benzo[d]isoxazol-3-yl)-piperazin-1-yl]-ethyl}-cyclohexyl)-2-trans-(3-methoxy-cyclopentyl)-acetamide]
